Data: patent US5079261A, “Use of lipoxin A4 and its derivatives as antagonists for slow-reacting substances of anaphylaxis” (Brigham and Women's Hospital, priority 1989, dated 1992)

Legend:
[1] = molecular target: T1, mesangial cell LTD4 receptor (Rattus norvegicus, UniProt Q924T8); settings: 10 nM [3H]-LTD4
T1 sequence (Q924T8 1-339): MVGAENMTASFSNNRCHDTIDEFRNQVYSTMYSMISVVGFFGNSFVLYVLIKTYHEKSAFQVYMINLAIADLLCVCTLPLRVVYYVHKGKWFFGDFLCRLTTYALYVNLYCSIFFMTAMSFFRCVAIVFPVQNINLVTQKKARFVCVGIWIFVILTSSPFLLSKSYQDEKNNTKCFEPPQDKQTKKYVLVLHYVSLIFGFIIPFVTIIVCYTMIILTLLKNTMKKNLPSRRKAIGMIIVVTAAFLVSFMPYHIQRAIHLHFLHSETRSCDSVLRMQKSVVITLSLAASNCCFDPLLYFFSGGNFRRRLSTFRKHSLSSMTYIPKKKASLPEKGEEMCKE
Description: (§1) Mesangial Cell Culture: Rat mesangial cells were isolated and cultured as described previously (Harris, R. C., et al., J. Clin. Invest. 82:1028-1039(1988). Briefly, kidneys were exicesed from two young Sprague-Dawly rats under sterile conditions, and the cortices removed, minced, and washed several times in Hank's Balanced Salt Solution, containing 10 mM HEPES pH 7.4, amphotericin (0.25 μg/ml), and gentamicin (50 μg/ml). The tissue was then passed through consecutive sterilized stainless mesh filters with pore sizes of 212 μm, 150 μm, and then onto the final mesh of 75 μm. The isolated glomeruli were harvested from the surface of the 75 μm. The isolated glomeruli were harvested from the surface of the 75 μm filter and washed twisce with the Hank's Media. The glomeruli were suspended in RPMI 1640 Medium with 15% Fetal Bovine Serum (Givco), penicillin (100 μ/ml) and streptomycin (100 μg/ml) (Gibco), plated into 100 mm cell culture petri dishes, and incubated at 37° C. in a humidified atmosphere of 95% air and 5% air and 5% CO2. Mesangial cell colonies were subcultured in 60 mm culture dishes, and experiments were carried out in cells from passages 2 to 12. […] Cells were routinely grown in RPMI-1640, supplemented with 20% fetal calf serum, penicillin 100 μ/ml, and streptomycin 100 μg/ml.
(§2) Binding studies were routinely performed at 4° C. […] The cells were then dissolved with 1.0 ml of 1.0 N NaOH, neutralized with HCl, dissolved in 10 ml of Aquasol (New England Nuclear, Boston, MA), and the bound radioactivity was determined using a scintillation counter (Beckman Instruments). […] Cell density was determined by counting cells from replicate wells, using a Coulter Counter ZBi (Coulter Electronics, Inc., Hialeah, Fla.).

[2] = molecular target: T1, mesangial cell LTD4 receptor; test: biochemical
Description: as §1, §2

CCCCC[C@H](O)/C=C/C=C\C=C\C=C\[C@@H](O)[C@@H](O)CCCC(=O)O [LXA4, (5S,6R,15S)-5,6,15-trihydroxy-7,9,13-trans-11-cis-eicosatetraenoic acid]
Competition for [3H]-LTD4 binding compared with LTB4 [1]: several-fold greater than that of the non-peptidoleukotriene, LTB4
Competition for [3H]-LTD4 binding compared with LTE4 [1]: equipotent to that of LTE4
IC50 [2]: 100 nM
